Where “and” joins values, the source holds several entries; their conditions need not be identical. Equal entries are not always repeated.
Experiments:
[1] = biological target: T1, human Nurr1 (hinge region and ligand binding domain) (Homo sapiens, UniProt P43354); assay: Gal4-Nurr1 hybrid reporter gene assay; format: cell-based
T1 construct: expressed in transfected cells; host or cells: HEK293T
Description: (§1) Nurr1 modulation was determined in a Gal4 hybrid reporter gene assay in HEK293T cells (German Collection of Microorganisms and Cell Culture GmbH, DSMZ) using pFR-Luc (Stratagene, La Jolla, CA, USA; reporter), pRL-SV40 (Promega, Madison, WI, USA; internal control) and pFA-CMV-hNurr1-LBD[14], coding for the hinge region and ligand binding domain of the canonical isoform of human Nurr1. […] After 24 h, the medium was changed to Opti-MEM without supplements, and cells were transiently transfected using Lipofectamine LTX reagent (Invitrogen, Carlsbad, CA, USA) according to the manufacturer’s protocol. Five hours after transfection, cells were incubated with the test compounds in Opti-MEM supplemented with penicillin (100 U/mL), streptomycin (100 μg/mL), and 0.1% DMSO for 16 h before luciferase activity was measured using the Dual-Glo Luciferase Assay System (Promega) according to the manufacturer’s protocol on a Tecan Spark luminometer (Tecan Deutschland GmbH, Crailsheim, Germany). Firefly luminescence was divided by Renilla luminescence and multiplied by 1000 resulting in relative light units (RLU) to normalize for transfection efficiency and cell growth. Fold activation was obtained by dividing the mean RLU of the test compound by the mean RLU of the untreated control. All samples were tested in at least three biologically independent experiments in duplicates. For dose-response curve fitting and calculation of EC50 values, the equation “[Agonist] vs. response -- Variable slope (four parameters)” was used in GraphPad Prism (version 7.00, GraphPad Software, La Jolla, CA, USA). Selectivity profiling was performed with identical procedures using pFA-CMV-Nur77-LBD[14], pFA-CMV-NOR-1-LBD[14], pFA-CMV-THRα-LBD[51], pFA-CMV-RARα-LBD[52], pFA-CMV-PPARα-LBD[53], pFA-CMV-PPARγ-LBD[53], pFA-CMV-PPARδ-LBD[53], pFA-CMV-LXRα-LBD[54], pFA-CMV-FXR-LBD[55] and pFA-CMV-hRXRα-LBD[56].

Nurr1 LBD = biological target: T2, Nurr1 LBD (Homo sapiens, UniProt P43354); assay: Isothermal titration calorimetry (ITC); format: binding; details: 25 °C
T2 construct: Nurr1 LBD protein (5–30 µM, expressed as described previously[21]); made in house
T2 sequence (P43354 360-595 limits assumed): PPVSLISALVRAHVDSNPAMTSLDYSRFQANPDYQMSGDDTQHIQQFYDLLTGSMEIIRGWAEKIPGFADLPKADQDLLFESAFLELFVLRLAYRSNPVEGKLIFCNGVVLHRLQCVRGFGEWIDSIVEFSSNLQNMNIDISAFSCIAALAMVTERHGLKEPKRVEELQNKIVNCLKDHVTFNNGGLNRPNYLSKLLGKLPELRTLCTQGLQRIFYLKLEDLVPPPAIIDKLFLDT
Description: ITC experiments were conducted on an Affinity ITC instrument (TA Instruments, New Castle, DE) at 25 °C with a stirring rate of 75 rpm. Nurr1 LBD protein (5–30 µM, expressed as described previously[21]) in buffer (20 mM Tris pH 7.5, 100 mM NaCl, 5% glycerol) containing 1–4% DMSO was titrated with the test compounds (30–150 μM in the same buffer containing 1-4% DMSO) in 26 injections (1 × 1 µL, 25 × 3-4 μL) with an injection interval of 120-150 s. As control experiments, the test compounds were titrated to the buffer, and the buffer was titrated to the Nurr1 LBD protein under otherwise identical conditions. Results were analyzed using NanoAnalyze software (version 3.11.0, TA Instruments, New Castle, DE) with independent binding models.

Nur77 = biological target: T3, Nur77 (Homo sapiens, UniProt P22736); assay: Gal4-Nur77 hybrid reporter gene assay; format: cell-based; details: 10 nM to 3 µM
T3 construct: chimeric receptors composed of the Gal4-DBD and the hinge region and LBD; expressed in transfected cells; host or cells: HEK293T
T3 sequence (P22736 360-595 limits assumed): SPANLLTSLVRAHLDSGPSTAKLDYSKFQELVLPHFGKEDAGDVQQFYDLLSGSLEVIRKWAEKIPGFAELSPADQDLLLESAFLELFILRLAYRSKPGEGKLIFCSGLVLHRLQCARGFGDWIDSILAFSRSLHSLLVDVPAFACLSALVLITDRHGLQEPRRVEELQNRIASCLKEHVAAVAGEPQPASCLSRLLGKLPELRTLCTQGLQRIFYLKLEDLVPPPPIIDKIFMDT
Description: as §1

NOR-1 = biological target: T4, NOR-1 (Homo sapiens, UniProt Q92570); assay: Gal4-NOR-1 hybrid reporter gene assay; format: cell-based; details: 10 nM to 3 µM
T4 construct: chimeric receptors composed of the Gal4-DBD and the hinge region and LBD; expressed in transfected cells; host or cells: HEK293T
T4 sequence (Q92570 394-623 limits assumed): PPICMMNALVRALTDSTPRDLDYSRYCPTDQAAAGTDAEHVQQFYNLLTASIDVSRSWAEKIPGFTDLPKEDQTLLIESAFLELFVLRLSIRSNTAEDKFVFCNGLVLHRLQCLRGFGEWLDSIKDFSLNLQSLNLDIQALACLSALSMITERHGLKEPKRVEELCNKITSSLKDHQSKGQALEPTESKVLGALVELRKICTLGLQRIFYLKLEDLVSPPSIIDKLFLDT
Description: as §1

[2] = biological target: T5, human full-length Nurr1 monomer (NBRE) (Homo sapiens, UniProt P43354); assay: Full-length Nurr1 reporter gene assay (NBRE); format: cell-based; details: 10 nM to 3 µM
T5 construct: The full-length human nuclear receptor Nurr1 (pcDNA3.1-hNurr1-NE; Addgene plasmid #102363); host or cells: HEK293T
T5 sequence (P43354 whole entry): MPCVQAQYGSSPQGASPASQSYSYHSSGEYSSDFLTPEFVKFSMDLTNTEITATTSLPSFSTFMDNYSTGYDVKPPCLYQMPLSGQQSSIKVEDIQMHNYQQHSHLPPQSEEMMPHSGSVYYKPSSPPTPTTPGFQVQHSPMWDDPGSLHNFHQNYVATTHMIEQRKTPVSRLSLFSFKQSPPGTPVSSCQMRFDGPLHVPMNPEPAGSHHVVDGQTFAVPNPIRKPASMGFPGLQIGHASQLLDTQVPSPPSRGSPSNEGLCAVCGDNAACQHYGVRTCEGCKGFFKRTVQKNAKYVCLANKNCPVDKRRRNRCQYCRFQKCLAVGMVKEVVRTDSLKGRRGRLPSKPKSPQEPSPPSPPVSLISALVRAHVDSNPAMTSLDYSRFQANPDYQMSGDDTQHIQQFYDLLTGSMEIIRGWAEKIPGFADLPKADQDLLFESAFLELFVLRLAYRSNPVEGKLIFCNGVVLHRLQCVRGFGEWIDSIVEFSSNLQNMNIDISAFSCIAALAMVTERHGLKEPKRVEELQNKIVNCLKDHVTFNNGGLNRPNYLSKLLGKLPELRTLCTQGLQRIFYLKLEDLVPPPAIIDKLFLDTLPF
From the text: (§2) Activation of full-length human Nurr1 was studied in transiently transfected HEK293T cells using the reporter plasmids pFR-Luc-NBRE[14], pFR-Luc-POMC[14] or pFR-Luc-DR5[14] each containing one copy of the respective human Nurr1 response element NBRE Nl3, NurRE, or DR5. The full-length human nuclear receptor Nurr1 (pcDNA3.1-hNurr1-NE; Addgene plasmid #102363) and, for DR5, RXRα (pSG5-hRXR)[57] were overexpressed. pRL-SV40 (Promega) was used for the normalization of transfection efficacy and to observe test compound toxicity. […] After 24 h, the medium was changed to Opti-MEM without supplements, and cells were transiently transfected using Lipofectamine LTX reagent (Invitrogen) according to the manufacturer’s protocol. Five hours after transfection, cells were incubated with the test compounds in Opti-MEM supplemented with penicillin (100 U/mL), streptomycin (100 μg/mL) and 0.1% DMSO for 16 h before luciferase activity was measured using the Dual-Glo Luciferase Assay System (Promega) according to the manufacturer’s protocol on a Tecan Spark luminometer (Tecan Deutschland GmbH). Firefly luminescence was divided by Renilla luminescence and multiplied by 1000 resulting in relative light units (RLU) to normalize for transfection efficiency and cell growth. Fold activation was obtained by dividing the mean RLU of the test compound by the mean RLU of the untreated control. All samples were tested in at least three biologically independent experiments in duplicates. For dose-response curve fitting and calculation of EC50 values, the equation “[Agonist] vs. response -- Variable slope (four parameters)” was used in GraphPad Prism (version 7.00, GraphPad Software).

[3] = biological target: T6, human full-length Nurr1 homodimer (NurRE) (Homo sapiens, UniProt P43354); assay: Full-length Nurr1 reporter gene assay (NurRE); format: cell-based; details: 10 nM to 3 µM
T6 construct: The full-length human nuclear receptor Nurr1 (pcDNA3.1-hNurr1-NE; Addgene plasmid #102363); host or cells: HEK293T
T6 sequence (P43354 whole entry): as above
From the text: as §2

[4] = biological target: T7, Nurr1-RXR heterodimer (DR5) (Homo sapiens, UniProt P43354); assay: Full-length Nurr1 reporter gene assay (DR5); format: cell-based; details: 10 nM to 3 µM
T7 construct: The full-length human nuclear receptor Nurr1 (pcDNA3.1-hNurr1-NE; Addgene plasmid #102363); host or cells: HEK293T
T7 sequence (P43354 whole entry): as above
T7 sequence (P19793 whole entry partner): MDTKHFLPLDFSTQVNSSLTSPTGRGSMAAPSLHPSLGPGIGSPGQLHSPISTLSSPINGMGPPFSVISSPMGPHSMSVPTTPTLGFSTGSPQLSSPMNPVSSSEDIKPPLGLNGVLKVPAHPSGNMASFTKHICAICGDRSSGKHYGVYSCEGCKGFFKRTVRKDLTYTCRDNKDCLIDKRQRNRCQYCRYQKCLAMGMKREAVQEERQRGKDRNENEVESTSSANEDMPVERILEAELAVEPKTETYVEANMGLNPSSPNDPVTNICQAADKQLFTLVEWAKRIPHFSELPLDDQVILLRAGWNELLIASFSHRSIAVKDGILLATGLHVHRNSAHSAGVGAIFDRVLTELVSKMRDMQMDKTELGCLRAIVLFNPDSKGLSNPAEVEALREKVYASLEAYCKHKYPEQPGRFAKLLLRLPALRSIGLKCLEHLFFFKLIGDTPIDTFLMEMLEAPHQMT
Description: Activation of full-length human Nurr1 was studied in transiently transfected HEK293T cells using the reporter plasmids pFR-Luc-NBRE[14], pFR-Luc-POMC[14] or pFR-Luc-DR5[14] each containing one copy of the respective human Nurr1 response element NBRE Nl3, NurRE, or DR5. […] After 24 h, the medium was changed to Opti-MEM without supplements, and cells were transiently transfected using Lipofectamine LTX reagent (Invitrogen) according to the manufacturer’s protocol. Five hours after transfection, cells were incubated with the test compounds in Opti-MEM supplemented with penicillin (100 U/mL), streptomycin (100 μg/mL) and 0.1% DMSO for 16 h before luciferase activity was measured using the Dual-Glo Luciferase Assay System (Promega) according to the manufacturer’s protocol on a Tecan Spark luminometer (Tecan Deutschland GmbH). Firefly luminescence was divided by Renilla luminescence and multiplied by 1000 resulting in relative light units (RLU) to normalize for transfection efficiency and cell growth. Fold activation was obtained by dividing the mean RLU of the test compound by the mean RLU of the untreated control. All samples were tested in at least three biologically independent experiments in duplicates. For dose-response curve fitting and calculation of EC50 values, the equation “[Agonist] vs. response -- Variable slope (four parameters)” was used in GraphPad Prism (version 7.00, GraphPad Software).

[5] = test system: full-length human Nurr1 (NBRE); parameters: method as in earlier work; details: cited from earlier work
N27 rat neurons = assay: WST-8 cytotoxicity assay, N27; format: cell-based
Description: (§3) Each sample was prepared in four biologically independent repeats. After incubation for 24 h, the medium was refreshed and 10% water-soluble tetrazolinum salt (Cell Counting Kit-8, MedChemExpress) was added to assess metabolic activity. After 4 h, absorbance was measured at 450 nm using a Tecan Spark Cyto instrument (Tecan).

HEK293T cells = assay: WST-8 cytotoxicity assay, HEK293T; format: cell-based, human; details: for rel. absorbance (450 nm): HEK293T, WST-8, vs DMSO ctrl
Description: as §3

Nurr1 = test system: Nurr1; parameters: method as in PMID 26124091; details: read-out: EC50 (Nurr1 agonism); cited from earlier work

T1 sequence (P43354 360-595 limits assumed): as the sequence (P43354 360-595 limits assumed) above

| SMILES | activation of Nurr1 ([1]; Gal4 hybrid reporter, 10 nM to 3 µM) | cytotoxicity in reporter gene assays ([1]; concentrations higher than 3 µM, drop in renilla luciferase control, HEK293T) | Kd (Nurr1 LBD) (Nurr1 LBD) | activation of Nur77 (Nur77) | activation of NOR1 (NOR-1) | activation of full-length Nurr1 on NBRE [2] | activation of full-length Nurr1 on NurRE [3] | activation of full-length Nurr1 on DR5 [4] | EC50 [5] [µM] | rel. absorbance (450 nm) (N27 rat neurons; N27, 10 µM, WST-8, vs DMSO ctrl) | rel. absorbance (450 nm) / remaining metabolic activity (N27 rat neurons; N27, 30 µM, WST-8, vs DMSO ctrl) | toxicity (WST-8) (N27 rat neurons; N27 rat neurons, 24 h) | toxicity (WST-8) (HEK293T cells; HEK293T cells, 24 h) | rel. absorbance (450 nm) (HEK293T cells; 10 µM) | rel. absorbance (450 nm) (HEK293T cells; 30 µM) [%] | EC50 (Nurr1) [µM] |
| --- | --- | --- | --- | --- | --- | --- | --- | --- | --- | --- | --- | --- | --- | --- | --- | --- |
| CC(C)(O)c1cccc(-c2ccc3nc(-c4ccc(Cl)cc4)cn3c2)c1 [SA00025, reference compound] | No activation | considerably cytotoxic | potential weak binding | No activation | No activation | no effect and no | no effect and no | no effect and no | 0.217 | – | – | – | – | – | – | – |
| CCN(CC)Cc1cc(Nc2ccnc3cc(Cl)ccc23)ccc1O [AQ, amodiaquine] | – | – | – | – | – | – | – | – | – | 37% and 39% and 40% | 21% and 22% and 23% | toxic | toxic | 75% and 70% | 47 | ~20 |

— paper PMC11217349, “Development of Nurr1 agonists from amodiaquine by scaffold hopping and fragment growing” (Communications Chemistry, 2024)
